Measurements from publication PMC12040169 (PLOS Biology, 2025).

Columns and labels:
[1] = tested on: T1, CTL2-GFP (C. trachomatis L2/434/Bu, GFP-expressing); assay: microbe, parasite or virus in culture; parameters: Intracellular C. trachomatis growth in HeLa cells, bulk GFP fluorescence relative to DMSO; details: Chlamydia trachomatis, HeLa, 28.5 h; bulk GFP, mean of 2; read-out: % of control remaining
T1 construct: L2/434/Bu, GFP-expressing
Experimental: MICs were calculated as described above.

in vitro [2] = assay: in vitro; parameters: Viability of infected HeLa host cells, resazurin conversion, bulk resorufin fluorescence relative to DMSO; details: human, hela cells; bulk resorufin, mean of 2
[3] = tested on: T2, C. trachomatis L2/434/Bu expressing GFP (CTL2-GFP); assay: microbe, parasite or virus in culture; parameters: C. trachomatis total inclusion area by high-content imaging, normalised to DMSO; details: Chlamydia trachomatis, HeLa, 28.5 h; total inclusion area; read-out: % of control remaining
T2 construct: L2/434/Bu GFP intracellular growth in HeLa cells
Procedure, shortened: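 A 36,785-compound library was screened using bulk GFP and resorufin fluorescence, followed by Hoechst staining and high-content imaging of inclusions (GFP) and host nuclei. Inclusion area and number served as growth proxies and nuclei counts as a viability proxy. MICs were calculated from these readouts.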

in vitro [4] = details: human, hela cells, % viability

Structure (SMILES): N#CCCCN1CCC(Oc2cncc(OCc3ccc(Cl)c(Cl)c3)n2)C1 (stereo not drawn) [CBK084436]
- activity at 1 µM [1]: 127%
- activity at 5 µM [1]: 81.2%
- activity at 10 µM [1]: 52.7%
- viability at 28.5 h, 1 µM (in vitro [2]): 95.4%
- viability at 28.5 h, 5 µM (in vitro [2]): 102%
- viability at 28.5 h, 10 µM (in vitro [2]): 99.4%
- activity at 1 µM [3]: 118%
- activity at 5 µM [3]: 74.4%
- activity at 10 µM [3]: 32.6%
- viability at 28.5 h, 10 µM (in vitro [4]): 96.1%

Structure (SMILES): Cc1cc(NS(=O)(=O)c2ccc(NC(=O)CCCOc3ccc(Cl)cc3Cl)cc2)no1 [CBK297145]
- activity at 1 µM [1]: 128%
- activity at 5 µM [1]: 62.6%
- activity at 10 µM [1]: 39.3%
- viability at 28.5 h, 1 µM (in vitro [2]): 85.1%
- viability at 28.5 h, 5 µM (in vitro [2]): 93.5%
- viability at 28.5 h, 10 µM (in vitro [2]): 89.4%
- activity at 1 µM [3]: 125%
- activity at 5 µM [3]: 84.3%
- activity at 10 µM [3]: 56.5%
- viability at 28.5 h, 10 µM (in vitro [4]): 103%

Structure (SMILES): O=C(Nc1ccccc1N1CCCNCC1)c1ccc2ccccc2c1 [CBK038927T]
- activity at 1 µM [1]: 94.8%
- activity at 5 µM [1]: 1.41%
- activity at 10 µM [1]: 8.25%
- viability at 28.5 h, 1 µM (in vitro [2]): 115%
- viability at 28.5 h, 5 µM (in vitro [2]): 114%
- viability at 28.5 h, 10 µM (in vitro [2]): 116%
- activity at 1 µM [3]: 84.9%
- activity at 5 µM [3]: 7.75%
- activity at 10 µM [3]: 1.67%
- viability at 28.5 h, 10 µM (in vitro [4]): 97.3%

Structure (SMILES): Cc1c(C(=O)Nc2ccc(Cl)cc2)sc2c1C(c1cccnc1)CC(=O)N2 (stereo not drawn) [CBK288233]
- activity at 1 µM [1]: 99.5%
- activity at 5 µM [1]: 55.5%
- activity at 10 µM [1]: 83.6%
- viability at 28.5 h, 1 µM (in vitro [2]): 101%
- viability at 28.5 h, 5 µM (in vitro [2]): 98.8%
- viability at 28.5 h, 10 µM (in vitro [2]): 97.1%
- activity at 1 µM [3]: 100%
- activity at 5 µM [3]: 56.2%
- activity at 10 µM [3]: 44.9%
- viability at 28.5 h, 10 µM (in vitro [4]): 87.1%

Structure (SMILES): COc1ccc(N2CCN(C(=O)c3ccc([N+](=O)[O-])o3)CC2)cc1 [CBK091410]
- activity at 1 µM [1]: 106%
- activity at 5 µM [1]: 55.2%
- activity at 10 µM [1]: 16%
- viability at 28.5 h, 1 µM (in vitro [2]): 106%
- viability at 28.5 h, 5 µM (in vitro [2]): 110%
- viability at 28.5 h, 10 µM (in vitro [2]): 125%
- activity at 1 µM [3]: 128%
- activity at 5 µM [3]: 64.3%
- activity at 10 µM [3]: 20.7%
- viability at 28.5 h, 10 µM (in vitro [4]): 105%

Structure (SMILES): O=C(Nc1ccc(S(=O)(=O)Nc2ncccn2)cc1)c1ccc2c(c1)OCCO2 [CBK268132]
- activity at 1 µM [1]: 135%
- activity at 5 µM [1]: 76.4%
- activity at 10 µM [1]: 55.4%
- viability at 28.5 h, 1 µM (in vitro [2]): 84%
- viability at 28.5 h, 5 µM (in vitro [2]): 94.2%
- viability at 28.5 h, 10 µM (in vitro [2]): 95.2%
- activity at 1 µM [3]: 89.9%
- activity at 5 µM [3]: 82.3%
- activity at 10 µM [3]: 42.6%
- viability at 28.5 h, 10 µM (in vitro [4]): 96.7%

Structure (SMILES): CC1CC(C)CN(Cc2csc(NC(=O)Cc3ccc(Cl)cc3)n2)C1 (stereo not drawn) [CBK306142]
- activity at 1 µM [1]: 150%
- activity at 5 µM [1]: 112%
- activity at 10 µM [1]: 75.2%
- viability at 28.5 h, 1 µM (in vitro [2]): 87.7%
- viability at 28.5 h, 5 µM (in vitro [2]): 91.3%
- viability at 28.5 h, 10 µM (in vitro [2]): 86%
- activity at 1 µM [3]: 140%
- activity at 5 µM [3]: 48.4%
- activity at 10 µM [3]: 46.1%
- viability at 28.5 h, 10 µM (in vitro [4]): 81.1%

Structure (SMILES): COc1ccc(C=CC(=O)Nc2sc3c(c2C(=O)O)CCCC3)cc1OC [CBK296103]
- activity at 1 µM [1]: 118%
- activity at 5 µM [1]: 85.9%
- activity at 10 µM [1]: 27.4%
- viability at 28.5 h, 1 µM (in vitro [2]): 91.1%
- viability at 28.5 h, 5 µM (in vitro [2]): 87.4%
- viability at 28.5 h, 10 µM (in vitro [2]): 89.7%
- activity at 1 µM [3]: 117%
- activity at 5 µM [3]: 69.8%
- activity at 10 µM [3]: 22.5%
- viability at 28.5 h, 10 µM (in vitro [4]): 117%

Structure (SMILES): CC(C)(CNS(=O)(=O)c1ccc(F)cc1)CNS(=O)(=O)c1ccc(F)cc1 [CBK265455]
- activity at 1 µM [1]: 79.4%
- activity at 5 µM [1]: 13.3%
- activity at 10 µM [1]: 0%
- viability at 28.5 h, 1 µM (in vitro [2]): 112%
- viability at 28.5 h, 5 µM (in vitro [2]): 111%
- viability at 28.5 h, 10 µM (in vitro [2]): 116%
- activity at 1 µM [3]: 80.8%
- activity at 5 µM [3]: 21.4%
- activity at 10 µM [3]: 1.74%
- viability at 28.5 h, 10 µM (in vitro [4]): 111%

Structure (SMILES): c1ccc(-c2nnc3ccccc3c2N2CCNCC2)cc1 [CBK066888]
- activity at 1 µM [1]: 125%
- activity at 5 µM [1]: 82.9%
- activity at 10 µM [1]: 27.1%
- viability at 28.5 h, 1 µM (in vitro [2]): 114%
- viability at 28.5 h, 5 µM (in vitro [2]): 106%
- viability at 28.5 h, 10 µM (in vitro [2]): 105%
- activity at 1 µM [3]: 97.7%
- activity at 5 µM [3]: 46%
- activity at 10 µM [3]: 0.17%
- viability at 28.5 h, 10 µM (in vitro [4]): 107%

Structure (SMILES): Cc1c(OCc2cnn(-c3ccccc3)c2)ccc(-c2n[nH]c(C(F)(F)F)c2-c2ccccc2)c1O [CBK264962]
- activity at 1 µM [1]: 89.8%
- activity at 5 µM [1]: 73.9%
- activity at 10 µM [1]: 49.7%
- viability at 28.5 h, 1 µM (in vitro [2]): 109%
- viability at 28.5 h, 5 µM (in vitro [2]): 90.9%
- viability at 28.5 h, 10 µM (in vitro [2]): 97%
- activity at 1 µM [3]: 82.3%
- activity at 5 µM [3]: 57.5%
- activity at 10 µM [3]: 20.9%
- viability at 28.5 h, 10 µM (in vitro [4]): 104%

Structure (SMILES): CCCn1c(NC(=O)C(C)Oc2ccc(Cl)cc2Cl)nc2ccccc21 (stereo not drawn) [CBK296979]
- activity at 1 µM [1]: 129%
- activity at 5 µM [1]: 103%
- activity at 10 µM [1]: 54.1%
- viability at 28.5 h, 1 µM (in vitro [2]): 88%
- viability at 28.5 h, 5 µM (in vitro [2]): 93.1%
- viability at 28.5 h, 10 µM (in vitro [2]): 89.7%
- activity at 1 µM [3]: 137%
- activity at 5 µM [3]: 94.8%
- activity at 10 µM [3]: 58.2%
- viability at 28.5 h, 10 µM (in vitro [4]): 108%

Structure (SMILES): Nc1ncc(-c2ccc(C(=O)N3CCOCC3)cc2)cc1C(=O)NCc1ccc(Cl)c(Cl)c1 [CBK158570]
- activity at 1 µM [1]: 97.9%
- activity at 5 µM [1]: 89.9%
- activity at 10 µM [1]: 72%
- viability at 28.5 h, 1 µM (in vitro [2]): 91.9%
- viability at 28.5 h, 5 µM (in vitro [2]): 93.3%
- viability at 28.5 h, 10 µM (in vitro [2]): 93.8%
- activity at 1 µM [3]: 87.8%
- activity at 5 µM [3]: 108%
- activity at 10 µM [3]: 65.8%
- viability at 28.5 h, 10 µM (in vitro [4]): 109%

Structure (SMILES): CCc1cc(Br)ccc1S(=O)(=O)NC(CC)COC (stereo not drawn) [CBK045265]
- activity at 1 µM [1]: 138%
- activity at 5 µM [1]: 114%
- activity at 10 µM [1]: 140%
- viability at 28.5 h, 1 µM (in vitro [2]): 100%
- viability at 28.5 h, 5 µM (in vitro [2]): 99%
- viability at 28.5 h, 10 µM (in vitro [2]): 96.5%
- activity at 1 µM [3]: 117%
- activity at 5 µM [3]: 106%
- activity at 10 µM [3]: 97.7%
- viability at 28.5 h, 10 µM (in vitro [4]): 88.1%

Structure (SMILES): OCC1(CNc2ncc(F)c(N3CCCC3)n2)CCOCC1 [CBK306647]
- activity at 1 µM [1]: 108%
- activity at 5 µM [1]: 64.2%
- activity at 10 µM [1]: 59%
- viability at 28.5 h, 1 µM (in vitro [2]): 100%
- viability at 28.5 h, 5 µM (in vitro [2]): 93.8%
- viability at 28.5 h, 10 µM (in vitro [2]): 95.5%
- activity at 1 µM [3]: 130%
- activity at 5 µM [3]: 60.9%
- activity at 10 µM [3]: 47.1%
- viability at 28.5 h, 10 µM (in vitro [4]): 87.3%

Structure (SMILES): O=[N+]([O-])c1ccc2[nH]c3c(c2c1)CCCC3NC1CCN(CCc2ccccc2)CC1 (stereo not drawn) [CBK262874]
- activity at 1 µM [1]: 58.5%
- activity at 5 µM [1]: 25.9%
- activity at 10 µM [1]: 16.1%
- viability at 28.5 h, 1 µM (in vitro [2]): 91.5%
- viability at 28.5 h, 5 µM (in vitro [2]): 84.8%
- viability at 28.5 h, 10 µM (in vitro [2]): 76.1%
- activity at 1 µM [3]: 60.6%
- activity at 5 µM [3]: 15.1%
- activity at 10 µM [3]: 3.02%
- viability at 28.5 h, 10 µM (in vitro [4]): 77.1%

Structure (SMILES): Cc1ccc(N2C(=O)c3[nH]nc(C)c3C2c2ccc(O)cc2)cc1 (stereo not drawn) [CBK287915]
- activity at 1 µM [1]: 108%
- activity at 5 µM [1]: 89.5%
- activity at 10 µM [1]: 54.1%
- viability at 28.5 h, 1 µM (in vitro [2]): 98%
- viability at 28.5 h, 5 µM (in vitro [2]): 107%
- viability at 28.5 h, 10 µM (in vitro [2]): 106%
- activity at 1 µM [3]: 111%
- activity at 5 µM [3]: 93.4%
- activity at 10 µM [3]: 54.6%
- viability at 28.5 h, 10 µM (in vitro [4]): 94.7%

Structure (SMILES): Cc1ccc2nsnc2c1S(=O)(=O)Nc1cccc2cccnc12 [CBK267051]
- activity at 1 µM [1]: 108%
- activity at 5 µM [1]: 79.7%
- activity at 10 µM [1]: 47.8%
- viability at 28.5 h, 1 µM (in vitro [2]): 76.3%
- viability at 28.5 h, 5 µM (in vitro [2]): 60.6%
- viability at 28.5 h, 10 µM (in vitro [2]): 60.9%
- activity at 1 µM [3]: 87.7%
- activity at 5 µM [3]: 88.5%
- activity at 10 µM [3]: 34.4%
- viability at 28.5 h, 10 µM (in vitro [4]): 46.9%
